Results reported in PubChem BioAssay (NCI).
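Five compound concentrations were applied to cells in 96-well plates for 48 hours; endpoints were derived by simple linear interpolation of the resulting dose-response curve. GI50: concentration for 50% inhibition of growth. TGI marks complete inhibition of growth.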

Experiments:
Assay in all cases: NCI anticancer screen, dose series, 48 h
A498 renal = test system: A498 renal
A549 NSCLC = test system: A549 NSCLC
HCT-116 colon = test system: HCT-116 colon
KM20L2 colon = test system: KM20L2 colon
OVCAR-8 ovarian = test system: OVCAR-8 ovarian
SK-MEL-5 melanoma = test system: SK-MEL-5 melanoma
SNB-78 CNS = test system: SNB-78 CNS
SR leukemia = test system: SR leukemia
TK-10 renal = test system: TK-10 renal
LXFL 529 NSCLC = test system: LXFL 529 NSCLC

SMILES	TGI (A498 renal) [µM]	TGI (A549 NSCLC) [µM]	TGI (HCT-116 colon) [µM]	TGI (KM20L2 colon) [µM]	TGI (OVCAR-8 ovarian) [µM]	TGI (SK-MEL-5 melanoma) [µM]	TGI (SNB-78 CNS) [µM]	TGI (SR leukemia) [µM]	TGI (TK-10 renal) [µM]	GI50 (A498 renal) [µM]	GI50 (A549 NSCLC) [µM]	GI50 (HCT-116 colon) [µM]	TGI (LXFL 529 NSCLC) [µM]	GI50 (OVCAR-8 ovarian) [µM]	GI50 (SK-MEL-5 melanoma) [µM]	GI50 (SR leukemia) [µM]	GI50 (TK-10 renal) [µM]	GI50 (KM20L2 colon) [µM]	GI50 (LXFL 529 NSCLC) [µM]	GI50 (SNB-78 CNS) [µM]
Cc1ccccc1NC(=O)C(=O)C(c1cnc2ccc([N+](=O)[O-])cc2n1)[N+](=O)[O-] (stereo not given)	> 100	> 100	> 100	> 100	> 100	> 100	> 100	> 100	> 100	–	–	–	–	–	–	–	–	–	–	–
O=C(O)C1NCCc2c1[nH]c1ccccc21 (stereo not given)	> 100	> 100	> 100	> 100	> 100	> 100	> 100	> 100	> 100	> 100	> 100	> 100	> 100	> 100	> 100	> 100	> 100	–	–	–
COC(=O)C(=O)C(C(=O)C(=O)Nc1ccc(Cl)cc1C)c1nc2ccc(C(=O)c3ccccc3)cc2[nH]c1=O (stereo not given)	> 100	> 100	> 100	> 100	> 100	–	> 100	> 100	> 100	–	–	–	> 100	–	–	–	–	–	–	–
O=c1c2ccccc2nc(-c2ccc(Br)cc2)n1NC1OC(CO)C(O)C(O)C1O (stereo not given)	> 100	> 100	> 100	> 100	> 100	> 100	> 100	–	> 100	–	–	–	> 100	–	–	–	–	–	–	–
NC(=O)N/N=C(\C(=O)C(=O)Nc1ccc(Cl)c(C(F)(F)F)c1)c1nc2ccc(C(=O)c3ccccc3)cc2[nH]c1=O	> 100	> 100	> 100	> 100	> 100	> 100	> 100	> 100	> 100	–	–	–	–	–	–	–	–	–	–	–
Cc1oc2c(C)c(O)c3c(c2c1C1(C)OCCO1)C(=O)C=C(Cl)C3=O	> 100	> 100	> 100	> 100	> 100	> 100	> 100	> 100	> 100	–	–	–	> 100	–	–	–	–	–	–	–
CN=C1Nc2ccc(Cl)cc2C(c2ccccc2)=NN1C	> 100	> 100	> 100	> 100	> 100	> 100	> 100	–	> 100	–	–	–	> 100	–	–	–	–	–	–	–
COC(=O)C1(C(=O)OC)CC2c3c(c4ccccc4n3C)CC(C1=O)N2Cc1ccccc1 (stereo not given)	> 100	> 100	> 100	> 100	> 100	> 100	> 100	–	> 100	–	–	–	> 100	–	–	–	–	–	–	–
N.N.N.N.N.N.[I-].[Os]	> 100	> 100	> 100	> 100	> 100	> 100	> 100	–	> 100	> 100	> 100	> 100	> 100	> 100	> 100	–	> 100	> 100	> 100	> 100
C/C=C/C=N/N(C(=O)c1cc([N+](=O)[O-])cc([N+](=O)[O-])c1)C1=NC(c2ccccc2)C(c2ccccc2)=NN1 (stereo not given)	> 100	> 100	84.8	93.9	> 100	81.8	> 100	–	> 100	–	–	–	–	–	–	–	–	–	–	–
CNNCc1ccc(C(=O)NC(C)C)cc1	> 500	> 500	> 500	> 500	> 500	> 500	> 500	> 375	> 500	–	> 500	–	> 500	–	> 500	–	–	> 500	–	–
COc1cc2nc(Sc3c([N+](=O)[O-])ncn3C)[nH]c2cc1OC	> 100	> 100	> 100	> 100	58	63.6	> 100	60.2	67.3	–	–	–	32	–	–	–	–	–	–	–
